US20060069132A1, “Azolecarboxamide herbicides” (priority 2004, published 2006)

Experiments:
ducksalad = experiment: Test B flooded paddy test; type: in vivo, Heteranthera limosa; settings: 1000 g ai/ha, visual rating, scale 0 to 100 (0 no effect, 100 complete control), 13 to 15 days
In short: (§1)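 Greenhouse test; postemergence application to plants at 1–4 leaves (2–18 cm); paddy species at 2 leaves; evaluated visually vs controls at 13–15 days; scale 0–100 (100 = complete control).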

[1] = test system: small flower umbrella sedge; experiment: Test B flooded paddy test; type: in vivo, Cyperus difformis; settings: 1000 g ai/ha, visual rating, scale 0 to 100 (0 no effect, 100 complete control), 13 to 15 days
In short: as §1

large crabgrass [2] = experiment: Test A pre-/postemergence herbicide test; type: in vivo, Digitaria sanguinalis; settings: for Plant response rating, Crabgrass, Large: Postemergence; for Crabgrass, Large plant response rating: Preemergence
In short: (§2)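 Greenhouse injury scoring (0–100, complete control = 100) at approximately ten days follows simultaneous pre- and postemergence application. Soil received a directed spray after seeding; seedlings of 2–10 cm at the one- to two-leaf stage were sprayed to runoff.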

barnyardgrass [3] = experiment: Test A pre-/postemergence herbicide test; type: in vivo, Echinochloa crus-galli; settings: for Plant response rating, Barnyardgrass: Postemergence; for Barnyardgrass plant response rating: Preemergence
In short: as §2

cocklebur = experiment: Test B pre-/postemergence herbicide test; type: in vivo, Xanthium strumarium
In short: (§3)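 Greenhouse pot assay with simultaneous preemergence (treated seed) and postemergence (2–18 cm seedlings) applications of surfactant-containing, non-phytotoxic solvent formulations. Response scored visually 13–15 days later on a 0–100 scale, 100 meaning complete control.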

wild oat = experiment: Test B postemergence herbicide test; type: in vivo, Avena fatua; settings: scale 0 (no effect) to 100 (complete control)
In short: (§4)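 Postemergence plants were sprayed with formulated test chemicals at 2 to 18 cm height (1- to 4-leaf stage); paddy species were grown to the 2-leaf stage. After 13 to 15 days in a greenhouse, injury was rated visually against untreated controls on a 0–100 scale (0 = no effect, 100 = complete control).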

giant foxtail [4] = experiment: Test A pre-/postemergence herbicide test; type: in vivo, Setaria faberi; settings: for Plant response rating, Foxtail, Giant: Postemergence; for Foxtail, Giant plant response rating: Preemergence
In short: as §2

giant foxtail [5] = experiment: Test B pre-/postemergence herbicide test; type: in vivo, Setaria faberi
In short: (§5)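 Plants compared with untreated controls 13–15 days post-treatment and given a visual 0–100 injury score. Applications: preemergence to seeds; postemergence at 1- to 4-leaf (2–18 cm); paddy species flooded, 2-leaf stage. Vehicle non-phytotoxic, surfactant included.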

rice [6] = experiment: Test B flooded paddy test; type: in vivo, Oryza sativa; settings: 1000 g ai/ha, visual rating, scale 0 to 100 (0 no effect, 100 complete control), 13 to 15 days
In short: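 Formulated test chemicals went onto postemergence plants measuring 2 to 18 cm, at one to four leaves. For the paddy assay, species had reached two leaves. Scoring took place 13–15 days later by eye, relative to untreated plants, using 0 for no effect up to 100 for full control.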

large crabgrass [7] = experiment: Test B pre-/postemergence herbicide test; type: in vivo, Digitaria sanguinalis
In short: as §5

rice [8] = experiment: Test B pre-/postemergence herbicide test; type: in vivo, Oryza sativa; settings: preemergence, 125 g ai/ha; 0 to 100 scale, 0 is no effect, 100 is complete control
In short: as §3

barnyardgrass [9] = experiment: Test B flooded paddy test; type: in vivo, Echinochloa crus-galli; settings: 1000 g ai/ha, visual rating, scale 0 to 100 (0 no effect, 100 complete control), 13 to 15 days
In short: as §1

morningglory [10] = experiment: Test A pre-/postemergence herbicide test; type: in vivo, Ipomoea spp.; settings: for Plant response rating, Morningglory: Postemergence; for Morningglory plant response rating: Preemergence
In short: as §2

wheat = experiment: Test B postemergence herbicide test; type: in vivo, Triticum aestivum; set-up: key to Wheat plant response rating: 0 = no effect, 100 = complete control; settings: scale 0 (no effect) to 100 (complete control)
In short: as §4

velvetleaf [11] = experiment: Test B pre-/postemergence herbicide test; type: in vivo, Abutilon theophrasti
In short: as §5

corn = experiment: Test B pre-/postemergence herbicide test; type: in vivo, Zea mays
In short: as §5

velvetleaf [12] = experiment: Test A pre-/postemergence herbicide test; type: in vivo, Abutilon theophrasti; settings: for Velvetleaf plant response rating: Preemergence, visual rating, 0 to 100 scale (0 no effect, 100 complete control)
In short: as §2

pigweed = experiment: Test B pre-/postemergence herbicide test; type: in vivo, Amaranthus retroflexus
In short: as §5

morningglory [13] = experiment: Test B pre-/postemergence herbicide test; type: in vivo, Ipomoea coccinea
In short: as §3

lambsquarters = experiment: Test B pre-/postemergence herbicide test; type: in vivo, Chenopodium album; settings: scale 0 (no effect) to 100 (complete control)
In short: as §5

blackgrass = experiment: Test B postemergence herbicide test; type: in vivo, Alopecurus myosuroides; settings: scale 0 (no effect) to 100 (complete control)
In short: as §1

Surinam grass = experiment: Test B pre-/postemergence herbicide test; type: in vivo, Urochloa decumbens
In short: as §5

barnyardgrass [14] = experiment: Test B pre-/postemergence herbicide test; type: in vivo, Echinochloa crus-galli
In short: as §3

redroot pigweed = experiment: Test A pre-/postemergence herbicide test; type: in vivo, Amaranthus retroflexus; settings: for Plant response rating, Pigweed: Postemergence; for Pigweed plant response rating: Preemergence
In short: as §2

[15] = 500 g ai/ha, 0 to 100 scale, 0 no effect, 100 complete control
[16] = 2000 g ai/ha, 0 to 100 scale, 0 no effect, 100 complete control
[17] = 500 g ai/ha, visual rating, 0 to 100 scale (0 no effect, 100 complete control)
[18] = Postemergence, 500 g ai/ha, visual rating after 13 to 15 days, scale 0 (no effect) to 100 (complete control)
[19] = Preemergence, 500 g ai/ha, scale 0 to 100
[20] = postemergence, 125 g ai/ha, visual rating, scale 0 (no effect) to 100 (complete control)
[21] = preemergence, 125 g ai/ha, 0 to 100 scale, 0 is no effect, 100 is complete control
[22] = Postemergence, 500 g ai/ha, visual rating after 13 to 15 days
[23] = postemergence, 125 g ai/ha, visual rating

## CCOC(=O)c1ccc(F)c(NC(=O)c2cc(C(C)(C)C)nn2CC)c1 [Compound 70]
ducksalad
  Ducksalad plant response rating: 0
[1]
  Sedge, Umbrella plant response rating: 30
Large crabgrass [2]; [15]
  Plant response rating, Crabgrass, Large: 25
Large crabgrass [2]; [16]
  Plant response rating, Crabgrass, Large: 30
  Crabgrass, Large plant response rating: 45
Large crabgrass [2]; [17]
  Crabgrass, Large plant response rating: 35
Barnyardgrass [3]; [15]
  Plant response rating, Barnyardgrass: 25
Barnyardgrass [3]; [16]
  Plant response rating, Barnyardgrass: 30
  Barnyardgrass plant response rating: 20
Barnyardgrass [3]; [17]
  Barnyardgrass plant response rating: 20
cocklebur; [18]
  Plant response rating, Cocklebur: 100
cocklebur; [19]
  Cocklebur plant response rating: 0
cocklebur; [20]
  Cocklebur plant response rating: 50
cocklebur; [21]
  Plant response rating, Cocklebur: 0
Wild oat; [22]
  Plant response rating, Oat, Wild: 20
Wild oat; [23]
  Oat, Wild plant response rating: 20
Giant foxtail [4]; [15]
  Plant response rating, Foxtail, Giant: 20
Giant foxtail [4]; [16]
  Plant response rating, Foxtail, Giant: 20
  Foxtail, Giant plant response rating: 55
Giant foxtail [4]; [17]
  Foxtail, Giant plant response rating: 40
Giant foxtail [5]; [18]
  Plant response rating, Foxtail, Giant: 30
Giant foxtail [5]; [19]
  Foxtail, Giant plant response rating: 100
Giant foxtail [5]; [20]
  Foxtail, Giant plant response rating: 20
Giant foxtail [5]; [21]
  Plant response rating, Foxtail, Giant: 90
Rice [6]
  Rice plant response rating: 10
Large crabgrass [7]; [18]
  Plant response rating, Crabgrass, Large: 20
Large crabgrass [7]; [19]
  Crabgrass, Large plant response rating: 100
Large crabgrass [7]; [20]
  Crabgrass, Large plant response rating: 20
Large crabgrass [7]; [21]
  Plant response rating, Crabgrass, Large: 100
Rice [8]
  Plant response rating, Rice: 0
Barnyardgrass [9]
  Barnyardgrass plant response rating: 10
Morningglory [10]; [15]
  Plant response rating, Morningglory: 25
Morningglory [10]; [16]
  Plant response rating, Morningglory: 30
  Morningglory plant response rating: 10
Morningglory [10]; [17]
  Morningglory plant response rating: 20
wheat; [22]
  Plant response rating, Wheat: 20
wheat; [23]
  Wheat plant response rating: 10
Velvetleaf [11]; [18]
  Plant response rating, Velvetleaf: 60
Velvetleaf [11]; [20]
  Velvetleaf plant response rating: 20
Velvetleaf [11]; [21]
  Plant response rating, Velvetleaf: 30
corn; [18]
  Plant response rating, Corn: 20
corn; [19]
  Corn plant response rating: 20
corn; [20]
  Corn plant response rating: 20
corn; [21]
  Plant response rating, Corn: 10
Velvetleaf [12]; Postemergence, 2000 g ai/ha, 0 to 100 scale, 0 no effect, 100 complete control
  Plant response rating, Velvetleaf: 30
Velvetleaf [12]; 500 g ai/ha
  Velvetleaf plant response rating: 10
Velvetleaf [12]; 2000 g ai/ha
  Velvetleaf plant response rating: 20
pigweed; [18]
  Plant response rating, Pigweed: 50
pigweed; [20]
  Pigweed plant response rating: 30
pigweed; [21]
  Plant response rating, Pigweed: 30
Morningglory [13]; [18]
  Plant response rating, Morningglory: 30
Morningglory [13]; [20]
  Morningglory plant response rating: 20
Morningglory [13]; [21]
  Plant response rating, Morningglory: 10
lambsquarters; [22]
  Plant response rating, Lambsquarters: 80
lambsquarters; [23]
  Lambsquarters plant response rating: 80
blackgrass; [22]
  Plant response rating, Blackgrass: 20
blackgrass; [23]
  Blackgrass plant response rating: 10
Surinam grass; [18]
  Plant response rating, Surinam Grass: 20
Surinam grass; [20]
  Surinam Grass plant response rating: 20
Surinam grass; [21]
  Plant response rating, Surinam Grass: 40
Barnyardgrass [14]; [18]
  Plant response rating, Barnyardgrass: 20
Barnyardgrass [14]; [19]
  Barnyardgrass plant response rating: 50
Barnyardgrass [14]; [20]
  Barnyardgrass plant response rating: 20
Barnyardgrass [14]; [21]
  Plant response rating, Barnyardgrass: 40
Redroot pigweed; [15]
  Plant response rating, Pigweed: 60
Redroot pigweed; [16]
  Plant response rating, Pigweed: 75
  Pigweed plant response rating: 5
Redroot pigweed; [17]
  Pigweed plant response rating: 0
